Experimental data reported in patent US20250339425A1 (Northeastern University, priority 2024, published 2025).

Legend:
[1] = system: CFA-induced paw edema in mice; assay: CFA-induced paw edema in mice; type: in vivo, mouse; conditions: CFA-treated mice; 10 mg/kg differing from vehicle
[2] = system: locomotor activity of mice; assay: Locomotor activity of mice (photocell activity cages); type: in vivo, mouse; conditions: 10 mg/kg, compared to vehicle-treated animals
Description: Mechanical thresholds were elevated by treatments with II (FIGS. 5A-5D). […] Therefore, the data in FIGS. 5A-5D are the mean±SD scores for each condition. Statistical analysis was conducted using a Kruskal-Wallis test followed by Mann-Whitney rank sum test at each time point following II treatment.
Interruptions of the photocell beams (two banks of eight cells each) were then recorded for the next 60 min. Data are expressed as number of photocell interruptions.

α9 nAChR = α9 nAChR (Homo sapiens, UniProt Q9UGM1)
[3] = system: CFA-induced inflammatory pain in mice; conditions: mouse, in vivo
Description: Experiments were conducted using adult (10-15 weeks) male and female C57BL/6J mice from Jackson Laboratory (Bar Harbor ME, USA): α7 WT and KO mice on a C57BL/6J background. Mice null for the α7 subunit along with their WT littermates were initially procured from Jackson Laboratory and later bred in an approved animal care facility at Virginia Commonwealth University. The breeding scheme involved crossing heterozygous mice and backcrossing progeny for at least 12 to 15 generations, to control for irregularities that might occur crossing solely mutant animals, to generate both mutant and WT animals. […] Then mice were retrieved from the vivarium and housed (4-5 mice per cage) for the duration of the study in a temperature- and humidity-controlled out-of-vivarium space on the same light/dark cycle. They were given ad libitum food and water. All experiments were performed during the light cycle.
Mice were injected intraplantarly with 20 μl of CFA (50%, diluted in mineral oil; Sigma-Aldrich). Mechanical sensitivity (see the measurement of the von Frey test) was measured before and 3 days after CFA injection.
The mechanical threshold was expressed as log 10 of 10× force (in milligrams), indicating the force of the von Frey hair to which the animal reacted (paw withdrawn, licking, or shaking). All behavioral testing on animals was performed in a blinded manner.

[4] = In vitro metabolic stability in rat hepatocytes
[5] = In vitro metabolic stability in pooled human liver microsomes
human α7 nAChR = human α7 nAChR (Homo sapiens, UniProt P36544); conditions: Table 1
[6] = system: CFA-induced inflammatory pain in mice; conditions: previously reported α9 nAChR agonist; cited from earlier work

Sequence of α9 nAChR (Q9UGM1 26-479 limits assumed): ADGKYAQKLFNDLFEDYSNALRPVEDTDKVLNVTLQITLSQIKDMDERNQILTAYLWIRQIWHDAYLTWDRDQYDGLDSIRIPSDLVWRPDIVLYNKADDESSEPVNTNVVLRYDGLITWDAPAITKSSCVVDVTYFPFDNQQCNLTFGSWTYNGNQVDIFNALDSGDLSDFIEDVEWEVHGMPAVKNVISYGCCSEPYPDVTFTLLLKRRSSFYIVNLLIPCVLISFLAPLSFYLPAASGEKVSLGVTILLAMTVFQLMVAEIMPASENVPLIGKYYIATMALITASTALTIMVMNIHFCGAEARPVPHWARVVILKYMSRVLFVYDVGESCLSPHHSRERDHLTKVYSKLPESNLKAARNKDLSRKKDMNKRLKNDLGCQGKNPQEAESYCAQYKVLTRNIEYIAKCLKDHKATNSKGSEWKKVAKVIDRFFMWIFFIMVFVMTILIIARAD
Sequence of human α7 nAChR (P36544 23-502): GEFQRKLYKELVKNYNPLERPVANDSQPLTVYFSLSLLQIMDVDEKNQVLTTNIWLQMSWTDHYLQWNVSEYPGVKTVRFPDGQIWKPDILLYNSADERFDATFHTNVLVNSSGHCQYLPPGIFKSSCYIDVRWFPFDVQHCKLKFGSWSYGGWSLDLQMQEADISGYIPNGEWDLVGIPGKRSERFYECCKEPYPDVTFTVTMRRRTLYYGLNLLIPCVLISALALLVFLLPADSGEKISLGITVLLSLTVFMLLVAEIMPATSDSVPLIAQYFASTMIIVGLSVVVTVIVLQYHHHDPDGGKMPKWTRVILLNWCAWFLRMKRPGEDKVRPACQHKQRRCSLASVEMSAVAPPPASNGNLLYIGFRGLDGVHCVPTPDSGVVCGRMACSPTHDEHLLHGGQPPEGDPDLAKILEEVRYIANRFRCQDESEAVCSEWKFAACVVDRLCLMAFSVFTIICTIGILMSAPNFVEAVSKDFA

SMILES	paw edema [1]	locomotor activity [2]	type of activity at α9 / α9* nAChR (α9 nAChR)	α9 Imax (α9 nAChR; Table 1, peak current, relative to ACh maximum)	EC50 (α9 nAChR; read-out: α9 EC50, Table 1, unit not given (0.23 as 230 nM)) [µM]	mechanical thresholds at the 72 h time point [3]	plasma protein binding (Plasma protein binding) [%]	clearance [4]	clearance [5]	α7 Imax (human α7 nAChR; net charge, relative to ACh maximum)	EC50 (human α7 nAChR; read-out: α7 EC50, unit inferred) [µM]	effective duration against CFA-induced pain like behaviors [6] [h]
CC[N+]1(C)CCN(c2ccc(NC(=O)c3cccc(C)n3)cc2)CC1 [Compound II, 1-Ethyl-1-methyl-4-(4-(6-methylpicolinamido)phenyl)piperazin-1-ium iodide]	significantly reduced paw edema	did not significantly alter locomotor activity	full agonist	1.01 ± 0.03	0.23 ± 0.034	no significant effects	54	low clearance	low clearance	0.41 ± 0.025	78.3 ± 11.3	
CC[N+]1(CC)CCN(c2ccc(C#N)cc2)CC1 [pCN-diEPP]												3 to 6
